Assay results from ChEMBL document CHEMBL1137250, “Novel 6-O-acylated vitamin C derivatives as hyaluronidase inhibitors with selectivity for bacterial lyases” (Bioorg Med Chem Lett, 2006).
Activity calls are given as the source filed them. The calls are words filed in the database; no cut-off is given here.

How the values were obtained:
[1] = tested on: Streptococcus agalactiae; assay: Inhibition of Streptococcus agalactiae 4755 hyaluronidase upto 200 uM at pH 5.0
[2] = organism: Bos taurus; assay: Inhibition of bovine hyaluronidase up to 200 uM at pH 5.0
[3] = Inhibition of Streptococcus pneumoniae hyaluronidase
[4] = organism: Bos taurus; assay: Inhibition of bovine hyaluronidase up to 100 mM at pH 5.0
[5] = Inhibition of Streptococcus agalactiae 4755 hyaluronidase at pH 5.0
[6] = (§1) Inhibition of bovine hyaluronidase at pH 5.0; set-up: species or system Bos taurus
[7] = tested on: Streptococcus agalactiae; assay: Inhibition of Streptococcus agalactiae 4755 hyaluronidase at 1100 uM at pH 5.0
[8] = organism: Bos taurus; assay: Inhibition of bovine hyaluronidase up to 1.1 mM at pH 5.0
[9] = tested on: Streptococcus agalactiae; assay: Inhibition of Streptococcus agalactiae 4755 hyaluronidase at 160 uM at pH 5.0
[10] = organism: Bos taurus; assay: as §1
[11] = tested on: Streptococcus agalactiae; assay: Inhibition of Streptococcus agalactiae 4755 hyaluronidase upto 13 mM at pH 5.0
[12] = organism: Bos taurus; assay: Inhibition of bovine hyaluronidase up to 13 mM at pH 5.0
[13] = tested on: Streptococcus agalactiae; assay: Inhibition of Streptococcus agalactiae 4755 hyaluronidase at 2000 uM at pH 5.0
[14] = organism: Bos taurus; assay: Inhibition of bovine hyaluronidase at 1430 uM
[15] = tested on: Streptococcus agalactiae; assay: Inhibition of Streptococcus agalactiae 4755 hyaluronidase at 190 uM at pH 5.0

Structure (SMILES)	IC50 [5]	IC50 [6]	other results
CCCCCCCCCCCCCCCC(=O)OC[C@H](O)[C@H]1OC(=O)C(OCc2ccccc2)=C1OCc1ccccc1			Activity [1]: inactive; Activity [2]: inactive
O=C1O[C@H]([C@@H](O)CO)C(O)=C1O [ASCORBIC ACID]	6100 µM		IC50 [3]: 5.8 mM; Activity [4]: inactive
O=C(CCCCCOc1ccc(OCc2ccccc2)cc1)OC[C@H](O)[C@H]1OC(=O)C(O)=C1O	76 µM	210 µM	
O=C(Cc1ccc(-c2ccccc2)cc1)OC[C@H](O)[C@H]1OC(=O)C(O)=C1O	358 µM	2010 µM	
O=C(CCCCCCCCCCOc1ccc(-c2ccccc2)cc1)OC[C@H](O)[C@H]1OC(=O)C(O)=C1O	7.5 µM	37 µM	
CC(C)(C)C(=O)OC[C@H](O)[C@H]1OC(=O)C(O)=C1O			inhibition [7]: 43%; Activity [8]: inactive
CCCCCCCCCCCCCCCC(=O)OC[C@H](O)[C@H]1OC(=O)C(OC)=C1OC			inhibition [9]: 5%; Activity [2]: inactive
CCCCCCCCCCC(=O)OC[C@H](O)[C@H]1OC(=O)C(O)=C1O	72 µM	580 µM	
CCCCCCCCCC(=O)OC[C@H](O)[C@H]1OC(=O)C(O)=C1O	102 µM	1380 µM	
CCCCCCCC(=O)OC[C@H](O)[C@H]1OC(=O)C(O)=C1O	772 µM		Activity [10]: inactive
COC1=C(OC)[C@@H]([C@@H](O)CO)OC1=O			Activity [11]: inactive; Activity [12]: inactive
CCCCCCCCCCCC(=O)OC[C@H](O)[C@H]1OC(=O)C(O)=C1O	47 µM	208 µM	
CCc1ccc(OCCCCCC(=O)OC[C@H](O)[C@H]2OC(=O)C(O)=C2O)cc1	280 µM		Activity [10]: inactive
O=C(CCCCCOc1ccc(-c2ccccc2)cc1)OC[C@H](O)[C@H]1OC(=O)C(O)=C1O	61 µM	188 µM	
O=C(CCCCCOCc1ccc(-c2ccccc2)cc1)OC[C@H](O)[C@H]1OC(=O)C(O)=C1O	102 µM	543 µM	
O=C1O[C@H]([C@@H](O)CO)C2=C1OCCO2			inhibition [13]: 24%; Activity [12]: inactive
O=C(CCCCCOc1ccccc1)OC[C@H](O)[C@H]1OC(=O)C(O)=C1O	717 µM		Activity [10]: inactive
CCCCCC(=O)OC[C@H](O)[C@H]1OC(=O)C(O)=C1O	475 µM		Activity [10]: inactive
O=C1O[C@H]([C@@H](O)COC(=O)c2ccccc2)C(O)=C1O	132 µM		inhibition [14]: 33%
O=C(CCCCCOCc1ccccc1)OC[C@H](O)[C@H]1OC(=O)C(O)=C1O	437 µM		Activity [10]: inactive
CCCCCCCCCCCCCCCC(=O)OC[C@H](O)[C@H]1OC(=O)C2=C1OCCO2			Activity [2]: inactive; inhibition [15]: 32%
CCCCCCCCCCCCC(=O)OC[C@H](O)[C@H]1OC(=O)C(O)=C1O	14.3 µM	96 µM	
CCCCCCCCCCCCCC(=O)OC[C@H](O)[C@H]1OC(=O)C(O)=C1O	8.4 µM	71 µM	
CCCCCCCCCCCCCCCC(=O)OC[C@H](O)[C@H]1OC(=O)C(O)=C1O [ASCORBYL PALMITATE]	4.2 µM	57 µM	
CCCCCCCCCCCCCCCCCC(=O)OC[C@H](O)[C@H]1OC(=O)C(O)=C1O [ASCORBYL STEARATE]	0.9 µM	39 µM	
O=C1O[C@H]([C@@H](O)CO)C(OCc2ccccc2)=C1OCc1ccccc1	355 µM		Activity [12]: inactive
O=C(CCCCCCCCCCOc1ccccc1)OC[C@H](O)[C@H]1OC(=O)C(O)=C1O	31 µM	105 µM	
